Tests used:
Assay type in all cases: cell-based
HIV-1_9510 ^R P36 = test: Viral growth kinetics in MT-4 cells (p24)
Procedure: The GRL-09510-resistant variant at passage 36 was propagated in fresh MT-4 cells without GRL-09510 for 7 days, and aliquoted HIV-1_9510 ^R P36 viral stocks were stored at −80 °C. MT-4 cells (3.2 × 10^5) were exposed to the HIV-1_9510 ^R P36 or wild-type HIV-1NL4-3 preparation containing 10 ng/ml p24 in 6-well plates for 3 hours, and the infected MT-4 cells were washed with fresh medium, divided into 4 fractions and each cultured with or without GRL-09510 (final concentration of MT-4 cells 10^4/ml, and drug concentrations 0, 0.01, 0.1 and 1 μΜ). The amounts of p24 were measured every two days for up to 7 days.

HIV-1NL4-3 = test: In vitro selection of resistant HIV-1 variants in MT-4 cells
Description: MT-4 cells (10^5/ml) were exposed to HIV-1NL4-3 (500 TCID50) and cultured in the presence of compounds at an initial concentration of its EC50 value. Viral replication was monitored by the determination of the amount of p24 produced by MT-4 cells. The supernatants were harvested on day 7 and were used to infect fresh MT-4 cells for the next round of culture in the presence of increasing concentrations of each compound. Proviral DNAs obtained from the lysates of infected cells were subjected to sequencing. This selection procedure was carried out until the drug concentration reached 5 μM as previously described[20]–[22]).

HIV-1I47V = test: p24 assay in MT-4 cells, recombinant clone; conditions: Human immunodeficiency virus 1, MT4
Procedure: (§1) The susceptibility of HIV-1LAI or HIV-2ROD to various compounds was determined as previously described[20]–[22]. Briefly, MT-2 cells (10^4/ml) were exposed to 100 TCID50 of HIV-1LAI or HIV-2ROD in the presence or absence of various concentrations of compounds in 96-well plates and were incubated at 37 °C for 7 days. After incubation, 100 μl of the medium was removed from each well, 3-(4,5-dimetylthiazol-2-yl)-2,5-diphenyltetrazolium bromide (MTT) solution (10 μl, 7.5 mg/ml in PBS) was added to each well, followed by incubation at 37 °C for 2 h. […] To determine the sensitivity of clinically isolated HIV-1s to compounds, PHA-PBMC (10^6/ml) were exposed to 50 TCID50 of each HIV-1 and cultured in the presence or absence of various concentrations of compounds in 10-fold serial dilutions in 96-well plates. In determining the drug-susceptibility of certain laboratory HIV-1 strains, MT-4 cells were employed as target cells as previously described[23],[24]. MT-4 cells (10^5/ml) were exposed to 100 TCID50 of drug-resistant HIV-1s in the presence or absence of various concentrations of compounds and were incubated at 37 °C. On day 7, the supernatants were harvested and the amounts of p24 were determined by using a fully-automated chemiluminescent enzyme immunoassay system (Lumipulse f: Fujirebio, Tokyo)[35]–[37]. […] All assays were performed in duplicate, and EC50 shown in this report represent average values of two to four independent experiments. PHA-PBMCs were derived from a single donor in each independent experiment. The research protocols described in the present study were carried out in accordance with relevant guidelines and regulations, and were approved in Ethics Committee for Epidemiological and General Research at the Faculty of Life Sciences, Kumamoto University.
(§2) To generate HIV-1 clones carrying the desired AA substitutions, site-directed mutagenesis was performed with a QuikChange site-directed mutagenesis kit (Stratagene, La Jolla, CA), and the AA substitution-containing genomic fragments were introduced into pHIV-1NL4-3Sma, which had been created to have a SmaI site by changing two nucleotides (2590 and 2593) of pHIV-1NL4-3.

HIV-1T91A = test: p24 assay in MT-4 cells, recombinant clone; conditions: Human immunodeficiency virus 1, MT4
Procedure: as §1, §2

HIV-1L10F = test: p24 assay in MT-4 cells, recombinant clone; conditions: Human immunodeficiency virus 1, MT4
Procedure: as §1, §2

HIV-1I84V = test: p24 assay in MT-4 cells, recombinant clone; conditions: Human immunodeficiency virus 1, MT4
Procedure: as §1, §2

COc1ccc(S(=O)(=O)N(CC(C)C)CC(O)C(Cc2ccccc2)NC(=O)OC2C3COC4OCC2C4C3)cc1 (stereo not drawn) [GRL-09510]
replication of HIV-1_9510 ^R P36 in the presence of drug (HIV-1_9510 ^R P36; 1 µM): completely suppressed | growth of HIV-1_9510 ^R P36 in the presence of drug (HIV-1_9510 ^R P36; 0.01 and 0.1 µM, 7-day culture): propagated | selection concentration reached after 24 passages (HIV-1NL4-3; HIV-1NL4-3 first exposed to 0.003 µM): 0.105 µM | concentrations in which the virus began continuously failing to propagate (HIV-1NL4-3; at around passage 30, selection discontinued at passage 37): > 0.27 µM | fold greater selection concentration than the initial concentration after 24 passages (HIV-1NL4-3; initial 0.003 µM): 35 fold | EC50 (HIV-1I47V): 3.6 ± 0.5 nM | EC50 (HIV-1T91A): 3.3 ± 0.4 nM | EC50 (HIV-1L10F): 4.4 ± 0.2 nM | EC50 (HIV-1I84V): 3.3 ± 0.3 nM

Source: publication PMC5613016, “GRL-09510, a Unique P2-Crown-Tetrahydrofuranylurethane -Containing HIV-1 Protease Inhibitor, Maintains Its Favorable Antiviral Activity against Highly-Drug-Resistant HIV-1 Variants in vitro” (Scientific Reports, 2017)
